Measurements reported in patent publication US6395286B1, “Cosmetic compositions containing anise extract and retinoids” (Unilever Home & Personal Care USA, division of Conopco, Inc., priority 1999, dated 2002).

Tested on: CRABP-2 expression of fibroblasts
Experiment: CRABP-2 protein expression in fibroblasts (Western blot, densitometric scanning)
Format: cell-based, Human
Conditions: for CRABP-2 levels: 4 h anise pre-treatment, 48 h incubation, +/− SD of triplicates; for As % of control: control as 100%
Protocol: Dried […] seeds (Pimpinella anisum) was purchased from local markets and powdered in a dry grinder. The alcoholic extract of anise seed was prepared by stirring 1 gram of the dry anise seed powder in 10 ml of ethanol from the list of solvents given below for 4 to 24 hrs at room temperature. The extracts were clarified by filtration and centrifugation, to obtain a 10% extract of anise seed in the particular solvent. Human adult fibroblasts obtained from sun-protected inner arm of 25-30 year […] volunteer were used in this. Cells were grown in 1:1 DMEM/Hams F12 media containing 10% FBS, maintained at 37C in a 5% CO2 atmosphere under normal atmospheric oxygen tension. Third passage adult fibroblasts were grown in DMEM media with 10% FBS in 12-well plates at a seeding density of 40,000 cells/ml/well. The cells at 80% confluence were rinsed in serum free and phenol red free (PRF) DMEM media twice. Pre-treatment with anise seed extract for 4 hours was conducted and then dosed with retinoids and was incubated for 48 hours. After the incubation, the wells were washed twice with 1×PBS and the cell monolayer was harvested in 100 μl cell lysis buffer (contains 1×PBS, 1% TritonX, 0.5% sodium deoxycholate, 0.1% SDS containing protease inhibitor (10 mg/ml PMSF in isopropanol, 10 μl/ml). The suspension was spun at 14000 rpm for 10 minutes, the supernatant collected and an aliquot of this supernatant was used for protein quantification. Protein concentration was determined using Pierce protein kit. The remainder of 100 μl supernatant (cell lysate) was denatured in a mixture of 40 μl sample buffer (NOVEX) and 0.5% Beta mercaptoethanol (BME) and by boiling the sample for 5 minutes. Equal amount of protein was then loaded onto 16% Tris-glycine gels for protein analysis by SDS page and Western Immuno-blotting for CRABP-2 protein expression. To measure the levels of CRABP-2 in the fibroblasts prepared as described above, the cell supernatant was re-suspended in 4× sample buffer and 0.5% BME, boiled for 5 minutes and used for western blotting. Equal amounts of protein were loaded onto 16% Tris-glycine gels for CRABP-2 protein analysis by SDS page and Western Immuno-blotting. The gels were transferred to nitrocellulose blots and Western Blotting was carried out using monoclonal antibodies to CRABP-2 according to standard procedures. The CRABP-2 protein band was visualized in the Western Blots using the chemiluminescence system obtained from Santa Cruz Biotechnology (SantaCruz, Calif.). The bands in the film were quantitated by densitometric scanning, the data from triplicate samples were calculated as % of control and expressed in the following tables as % increase over control (with control as 100%) +/−SD of triplicates.

[1] = Example 1: 100 nM retinoids and 0.1 μl of a 10% anise seed extract
[2] = Example 2: 100 nM retinoids and 1.0 μl of a 10% anise seed extract
[3] = Example 3: 500 nM retinoids and 0.1 μl of a 10% anise seed extract
[4] = Example 4: 500 nM retinoids and 1.0 μl of a 10% anise seed extract

Row | Compound | CRABP-2 levels [1] | As % of control [1] | CRABP-2 levels [2] | As % of control [2] | CRABP-2 levels [3] | As % of control [3] | CRABP-2 levels [4] | As % of control [4]
1 | CC1=C(/C=C/C(C)=C/C=C/C(C)=C/CO)C(C)(C)CCC1 [Retinol] | 1.36 +/− 0.17 | 317 +/− 39 % of control | 1.36 +/− 0.17 | 317 +/− 39 % of control | 0.66 +/− 0.19 | 154 +/− 44 % of control | 0.66 +/− 0.19 | 154 +/− 44 % of control
2 | CCCCCCCCCCCCCCCC(=O)OC/C=C(C)/C=C/C=C(C)/C=C/C1=C(C)CCCC1(C)C [Retinyl Palmitate] | 1.12 +/− 0.15 | 262 +/− 37 % of control | 1.12 +/− 0.15 | 262 +/− 37 % of control | 0.83 +/− 0.5 | 193 % of control | 0.83 +/− 0.5 | 193 % of control
3 | CC(=O)OC/C=C(C)/C=C/C=C(C)/C=C/C1=C(C)CCCC1(C)C [Retinyl acetate] | 2.38 +/− 0.81 | 553 % of control | 2.38 +/− 0.81 | 553 % of control | 1.02 +/− 0.56 | 237 % of control | 1.02 +/− 0.56 | 237 % of control
4 | CCCCC/C=C\C/C=C\CCCCCCCC(=O)OC/C=C(C)/C=C/C=C(C)/C=C/C1=C(C)CCCC1(C)C [Retinyl linoleate] | 1.23 +/− 0.28 | 286 +/− 65 % of control | 1.23 +/− 0.28 | 286 +/− 65 % of control | 0.99 +/− 0.13 | 231 +/− 30 % of control | 0.99 +/− 0.13 | 231 +/− 30 % of control
